In general, IC50 refers to the concentration needed to halve the response being measured.

The assay concerns the target T1, PD-1/PD-L1 (Homo sapiens, UniProt Q9NZQ7).
T1 construct: TVMV protease site linker (C); made in house; host or cells: HEK293T cells
Briefly: PD-1/PD-L1 Homogenous Time-Resolved Fluorescence (HTRF) binding assay. As to conditions: PD-L1-His 10 nM, PD-1-Ig 20 nM. The method, boiled down: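 Time-resolved FRET read-out using Eu-cryptate anti-Ig (1 nM final) and APC anti-His (20 nM final). Tagged extracellular domains were used in BSA/Tween-20-supplemented dPBS, with compound pre-incubated 15 min with PD-L1-His (10 nM) before PD-1-Ig (20 nM) was added for 15 min. Other human pairs: PD-L2-His 5 nM with PD-1-Ig 20 nM; PD-L1-Ig 10 nM with CD80-His 100 nM.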

T1 sequence (Q9NZQ7 18-239): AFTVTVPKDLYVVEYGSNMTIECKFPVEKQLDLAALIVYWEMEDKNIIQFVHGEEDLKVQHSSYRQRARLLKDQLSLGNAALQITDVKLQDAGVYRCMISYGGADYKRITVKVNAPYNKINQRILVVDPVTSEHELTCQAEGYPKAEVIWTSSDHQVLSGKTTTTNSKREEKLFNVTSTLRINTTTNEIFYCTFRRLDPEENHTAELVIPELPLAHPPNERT

On to `Cc1c(COc2cc(OCc3cncc(C#N)c3)c(CNCc3ncc(-c4ccccc4)o3)cc2Cl)cccc1-c1cccc(OCC2CCCN(C)C2)c1Cl` (stereo not shown) [Example 2612, 5-((4-chloro-5-((2′-chloro-2-methyl-3′-((1-methylpiperidin-3-yl)methoxy)-[1,1′-biphenyl]-3-yl)methoxy)-2-((((5-phenyloxazol-2-yl)methyl)amino)methyl)phenoxy)methyl)nicotinonitrile], for which the half-inhibitory concentration (IC50) was 7.3 nM.

`Cc1c(COc2cc(OCc3cncc(C#N)c3)c(CNCCc3nc4cc(Cl)ccc4[nH]3)cc2Cl)cccc1-c1cccc(OCC2CCCN(C)C2)c1Cl` (stereo not shown) [Example 2613, 5-((4-chloro-2-(((2-(5-chloro-1H-benzo[d]imidazol-2-yl)ethyl)amino)methyl)-5-((2′-chloro-2-methyl-3′-((1-methylpiperidin-3-yl)methoxy)-[1,1′-biphenyl]-3-yl)methoxy)phenoxy)methyl)nicotinonitrile] came in with a concentration for half-maximal inhibition (IC50) of 2.2 nM.

`Cc1c(COc2cc(OCc3cncc(C#N)c3)c(CNCc3ccnn3C)cc2Cl)cccc1-c1cccc(OCC2CCCN(C)C2)c1Cl` (stereo not shown) [Example 2614, 5-((4-chloro-5-((2′-chloro-2-methyl-3′-((1-methylpiperidin-3-yl)methoxy)-[1,1′-biphenyl]-3-yl)methoxy)-2-((((1-methyl-1H-pyrazol-5-yl)methyl)amino)methyl)phenoxy)methyl)nicotinonitrile] registered an IC50 of 1.7 nM.

In the case of `Cc1c(COc2cc(OCc3cncc(C#N)c3)c(CNCc3nc4ccccc4[nH]3)cc2Cl)cccc1-c1cccc(OCC2CCCN(C)C2)c1Cl` (stereo not shown) [Example 2616, 5-((2-((((1H-benzo[d]imidazol-2-yl)methyl)amino)methyl)-4-chloro-5-((2′-chloro-2-methyl-3′-((1-methylpiperidin-3-yl)methoxy)-[1,1′-biphenyl]-3-yl)methoxy)phenoxy)methyl)nicotinonitrile], the IC50 amounted to 1.9 nM.

Molecule `Cc1c(COc2cc(OCc3cncc(C#N)c3)c(CN(C)Cc3csc(N)n3)cc2Cl)cccc1-c1cccc(OCC2CCCN(C)C2)c1Cl` (stereo not shown) [Example 2617, 5-((2-((((2-aminothiazol-4-yl)methyl)(methyl)amino)methyl)-4-chloro-5-((2′-chloro-2-methyl-3′-((1-methylpiperidin-3-yl)methoxy)-[1,1′-biphenyl]-3-yl)methoxy)phenoxy)methyl)nicotinonitrile] yielded an IC50 of 1.8 nM.

`Cc1c(COc2cc(OCc3cncc(C#N)c3)c(CN(C)Cc3nc[nH]n3)cc2Cl)cccc1-c1cccc(OCC2CCCN(C)C2)c1Cl` (stereo not shown) [Example 2618, 5-((2-((((1H-1,2,4-triazol-3-yl)methyl)(methyl)amino)methyl)-4-chloro-5-((2′-chloro-2-methyl-3′-((1-methylpiperidin-3-yl)methoxy)-[1,1′-biphenyl]-3-yl)methoxy)phenoxy)methyl)nicotinonitrile] had a 50% inhibitory concentration (IC50) of 0.7 nM.

For the molecule `Cc1c(COc2cc(OCc3cncc(C#N)c3)c(CNCc3nnc4ccc(C(F)(F)F)cn34)cc2Cl)cccc1-c1cccc(OCC2CCCN(C)C2)c1Cl` (stereo not shown) [Example 2619, 5-((4-chloro-5-((2′-chloro-2-methyl-3′-((1-methylpiperidin-3-yl)methoxy)-[1,1′-biphenyl]-3-yl)methoxy)-2-((((6-(trifluoromethyl)-[1,2,4]triazolo[4,3-a]pyridin-3-yl)methyl)amino)methyl)phenoxy)methyl)nicotinonitrile], the IC50 was 3.1 nM.

`Cc1c(COc2cc(OCc3cncc(C#N)c3)c(CNC(C)(C)c3ncon3)cc2Cl)cccc1-c1cccc(OCC2CCCN(C)C2)c1Cl` (stereo not shown) [Example 2620, 5-((2-(((2-(1,2,4-oxadiazol-3-yl)propan-2-yl)amino)methyl)-4-chloro-5-((2′-chloro-2-methyl-3′-((1-methylpiperidin-3-yl)methoxy)-[1,1′-biphenyl]-3-yl)methoxy)phenoxy)methyl)nicotinonitrile] came in with a concentration for half-maximal inhibition (IC50) of 4.7 nM.

With `Cc1c(COc2cc(OCc3cncc(C#N)c3)c(CNCc3cccnc3Cl)cc2Cl)cccc1-c1cccc(OCC2CCCN(C)C2)c1Cl` (stereo not shown) [Example 2621, 5-((4-chloro-5-((2′-chloro-2-methyl-3′-((1-methylpiperidin-3-yl)methoxy)-[1,1′-biphenyl]-3-yl)methoxy)-2-((((2-chloropyridin-3-yl)methyl)amino)methyl)phenoxy)methyl)nicotinonitrile], the IC50 is 8.9 nM.

`CCc1csc(CNCc2cc(Cl)c(OCc3cccc(-c4cccc(OCC5CCCN(C)C5)c4Cl)c3C)cc2OCc2cncc(C#N)c2)n1` (stereo not shown) [Example 2622, 5-((4-chloro-5-((2′-chloro-2-methyl-3′-((1-methylpiperidin-3-yl)methoxy)-[1,1′-biphenyl]-3-yl)methoxy)-2-((((4-ethylthiazol-2-yl)methyl)amino)methyl)phenoxy)methyl)nicotinonitrile] displayed a 50% inhibitory concentration (IC50) of 8.3 nM.

`Cc1c(COc2cc(OCc3cncc(C#N)c3)c(CNCc3ncc4ccccn34)cc2Cl)cccc1-c1cccc(OCC2CCCN(C)C2)c1Cl` (stereo not shown) [Example 2623, 5-((4-chloro-5-((2′-chloro-2-methyl-3′-((1-methylpiperidin-3-yl)methoxy)-[1,1′-biphenyl]-3-yl)methoxy)-2-(((imidazo[1,5-a]pyridin-3-ylmethyl)amino)methyl)phenoxy)methyl)nicotinonitrile] showed a concentration for half-maximal inhibition (IC50) of 6.1 nM.

The molecule `[2H]C([2H])([2H])C(NCc1cc(Cl)c(OCc2cccc(-c3cccc(OCC4CCCN(C)C4)c3Cl)c2C)cc1OCc1cncc(C#N)c1)(c1ncon1)C([2H])([2H])[2H]` (stereo not shown) [Example 2624, 5-((2-(((2-(1,2,4-oxadiazol-3-yl)propan-2-yl-1,1,1,3,3,3-d6)amino)methyl)-4-chloro-5-((2′-chloro-2-methyl-3′-((1-methylpiperidin-3-yl)methoxy)-[1,1′-biphenyl]-3-yl)methoxy)phenoxy)methyl)nicotinonitrile] displayed a half-maximal inhibitory concentration (IC50) of 3 nM.

Turning to `Cc1c(COc2cc(OCc3cncc(C#N)c3)c(CNC3(c4ncon4)CC(OCc4ccccc4)C3)cc2Cl)cccc1-c1cccc(OCC2CCCN(C)C2)c1Cl` (stereo not shown) [Example 2625, 5-((2-(((3-(benzyloxy)-1-(1,2,4-oxadiazol-3-yl)cyclobutyl)amino)methyl)-4-chloro-5-((2′-chloro-2-methyl-3′-((1-methylpiperidin-3-yl)methoxy)-[1,1′-biphenyl]-3-yl)methoxy)phenoxy)methyl)nicotinonitrile], the IC50 was determined as 35.3 nM.

These data come from US20240124417A1, “COMPOUNDS USEFUL AS IMMUNOMODULATORS” (Bristol-Myers Squibb Company, priority 2019, published 2024).
